A short description of this assay: Replicon assay (luciferase readout, ET cell line). The assay is classed as cell-based. The following applies: Hepatitis C virus; 10 μM compound; ET (Huh-lucubineo-ET) cells; luciferase activity measured 48-72 hours after addition; relative to no compound control; read-out: % Inhib. at 10 μM (percent inhibition of replication). The procedure: A cell line, ET (Huh-lucubineo-ET) is used for screening of compounds for inhibiting HCV RNA dependent RNA polymerase. The ET cell line is stably transfected with RNA transcripts harboring a I389luc-ubi-neo/NS3-3′/ET; replicon with firefly luciferase-ubiquitin-neomycin phosphotransferase fusion protein and EMCV-IRES driven NS3-5B polyprotein containing the cell culture adaptive mutations (E1202G; T12801; K1846T) (Krieger at al, 2001 and unpublished). The ET cells are grown in DMEM (Dulbeco's Modified Eagle's Medium), supplemented with 10% fetal calf serum, 2 mM Glutamine, Penicillin (100 IU/mL)/Streptomycin (100 μg/mL), 1× nonessential amino acids, and 250 μg/mL G418 (“Geneticin”). They are all available through Life Technologies (Bethesda, Md.). The cells are plated at 0.5-1.0×10^4 cells/well in the 96 well plates and incubated for 24 hrs before adding test compound. The compounds are added to the cells to achieve a final concentration of 0.1 nM to 50 μm and a final DMSO (dimethylsulfoxide) concentration of 0.5%. Luciferase activity is measured 48-72 hours later by adding a lysis buffer and the substrate (Catalog number Glo-lysis buffer E2661 and Bright-Glo luciferase system E2620 Promega, Madison, Wis.). Cells should not be too confluent during the assay. Percent inhibition of replication data is plotted relative to no compound control. Under the same condition, cytotoxicity of the compounds are determined using cell proliferation reagent, WST-1(Roche, Germany). The compounds showing antiviral activities, but no significant cytotoxicities are chosen to determine IC50 and TC50. For these determinations, a 10 point, 2-fold serial dilution for each compound was used, which spans a concentration range of 1000 fold. IC50 and TC50 values were calculated by fitting % inhibition at each concentration to the following equation:
% inhibition=100%/[(IC50/[I])^b+1]
where b is Hill's coefficient. […]
As to `O=C(Nc1ccc(N2CCOCC2)cc1)c1cccc(-c2csc(C(=O)Nc3ccc(CN4CCS(=O)(=O)CC4)cc3)n2)c1` [Compound 107, 4-[3-(4-Morpholin-4-yl-phenylcarbamoyl)-phenyl]-thiazole-2-carboxylic acid [4-(1,1-dioxo-thiomorpholin-4-ylmethyl)-phenyl]-amide], the inhibition (commonly the share of the control response that was lost under treatment) at 10 µM was found to be 36.5%.
With `O=C(Nc1nc(-c2ccc(C(=O)NC3CC3)cc2)cs1)c1ccc(CN2CCS(=O)(=O)CC2)cc1` [Compound 102, 4-{2-[4-(1,1-Dioxo-thiomorpholin-4-ylmethyl)-benzoylamino]-thiazol-4-yl}-N-cyclopropyl-benzamide] the figure was 47.4%.
The same measure for `O=C(Nc1ccc(N2CCOCC2)cc1)c1ccc(-c2csc(C(=O)Nc3ccc(N4CCOCC4)cc3)n2)cc1` [Compound 111, 4-[4-(4-Morpholin-4-yl-phenylcarbamoyl)-phenyl]-thiazole-2-carboxylic acid (4-morpholin-4-yl-phenyl)-amide]: 34.2%; for `CCCS(=O)(=O)N1CCN(Cc2ccc(NC(=O)c3cccc(-c4csc(C(=O)Nc5ccc(CN6CCN(S(=O)(=O)CCC)CC6)cc5)n4)c3)cc2)CC1` [Compound 115, 4-(3-{4-[4-(Propane-1-sulfonyl)-piperazin-1-ylmethyl]-phenylcarbamoyl}-phenyl)-thiazole-2-carboxylic acid {4-[4-(propane-1-sulfonyl)-piperazin-1-ylmethyl]-phenyl}-amide]: 100%; for `CCCS(=O)(=O)N1CCN(Cc2ccc(NC(=O)c3ccc(-c4csc(C(=O)Nc5ccc(CN6CCN(S(=O)(=O)CCC)CC6)cc5)n4)cc3)cc2)CC1` [Compound 114, 4-(4-{4-[4-(Propane-1-sulfonyl)-piperazin-1-ylmethyl]-phenylcarbamoyl}-phenyl)-thiazole-2-carboxylic acid {4-[4-(propane-1-sulfonyl)-piperazin-1-ylmethyl]-phenyl}-amide]: 98%.
For `O=C(Nc1ccc(CN2CCS(=O)(=O)CC2)cc1)c1cccc(-c2csc(C(=O)Nc3ccc(N4CCOCC4)cc3)n2)c1` [Compound 108, 4-{3-[4-(1,1-Dioxo-thiomorpholin-4-ylmethyl)-phenylcarbamoyl]-phenyl}-thiazole-2-carboxylic acid (4-morpholin-4-yl-phenyl)-amide], the inhibition at 10 µM came to 63.1%.
The same measure for `O=C(Nc1ccc(CN2CCS(=O)(=O)CC2)cc1)c1ccc(-c2csc(C(=O)Nc3ccc(CN4CCS(=O)(=O)CC4)cc3)n2)cc1` [Compound 110, 4-{4-[4-(1,1-Dioxo-thiomorpholin-4-ylmethyl)-phenylcarbamoyl]-phenyl}-thiazole-2-carboxylic acid [4-(1,1-dioxo-thiomorpholin-4-ylmethyl)-phenyl]-amide]: 99.9%; for `CCCS(=O)(=O)N1CCN(Cc2ccc(NC(=O)c3cccc(-c4csc(C(=O)Nc5ccc(N6CCOCC6)cc5)n4)c3)cc2)CC1` [Compound 116, 4-(3-{4-[4-(Propane-1-sulfonyl)-piperazin-1-ylmethyl]-phenylcarbamoyl}-phenyl)-thiazole-2-carboxylic acid (4-morpholin-4-yl-phenyl)-amide]: 99.5%; for `O=C(Nc1ccc(N2CCOCC2)cc1)c1cccc(-c2csc(NC(=O)c3ccc(CN4CCS(=O)(=O)CC4)cc3)n2)c1` [Compound 104, 3-{2-[4-(1,1-Dioxo-thiomorpholin-4-ylmethyl)-benzoylamino]-thiazol-4-yl}-N-(4-morpholin-4-yl-phenyl)-benzamide]: 95.8%.
In the case of `O=C(Nc1ccc(N2CCOCC2)cc1)c1cccc(-c2csc(C(=O)Nc3ccc(N4CCOCC4)cc3)n2)c1` [Compound 112, 4-[3-(4-Morpholin-4-yl-phenylcarbamoyl)-phenyl]-thiazole-2-carboxylic acid (4-morpholin-4-yl-phenyl)-amide], the inhibition at 10 µM came to 98.5%.
The same measure for `O=C(Nc1ccc(CN2CCS(=O)(=O)CC2)cc1)c1cccc(-c2csc(NC(=O)c3ccc(N4CCOCC4)cc3)n2)c1` [Compound 109, 3-[2-(4-morpholin-4-yl-benzoylamino)-thiazol-4-yl]-N-[4-(1,1-dioxo-thiomorpholin-4-ylmethyl)-phenyl]-benzamide]: 99.8%.
The same measure for `O=C(Nc1ccc(CN2CCS(=O)(=O)CC2)cc1)c1cccc(-c2csc(C(=O)Nc3ccc(CN4CCS(=O)(=O)CC4)cc3)n2)c1` [Compound 113, 4-{3-[4-(1,1-Dioxo-thiomorpholin-4-ylmethyl)-phenylcarbamoyl]-phenyl}-thiazole-2-carboxylic acid [4-(1,1-dioxo-thiomorpholin-4-ylmethyl)-phenyl]-amide]: 89.5%.

The record behind these values is patent US20090317360A1, “ANTI-VIRAL INHIBITORS AND METHODS OF USE” (Genelabs Technologies, Inc., priority 2007, published 2009).
